Assay results from patent US6699861B1, “Anti-quinazoline compounds” (Cancer Research Technology Limited, priority 1999, dated 2004).
Values joined by “and” are separate entries in the source; they are usually repeats but may differ in a detail not shown here. Equal entries are not always repeated. Where two headings read alike, the source gives them in different places.

Experiments:
[1] = test system: W1L2 human lymphoblastoid cells; test: Growth inhibition of W1L2 cells; assay type: cell-based; settings: W1L2 suspension cells, read-out: Inhibition of Cell Growth IC50, W1L2 (B)
W1L2:C1 cells = test: Growth inhibition of W1L2:C1 cells (elevated TS); assay type: cell-based, human; settings: read-out: Inhibition of Cell Growth IC50, W1L2:C1 (B)
Protocol: W1L2 human lymphoblastoid, W1L2:C1 (elevated TS; O'Connor et al, Cancer Res, 52, 1137-1143 (1992)) and L1210 mouse leukaemia cells were cultured in suspension and A2780, PXN94, 41M, HX62, SKOV3 (human ovarian carcinoma), MCF-7 (human breast carcinoma), HT29 and SW480 (human colon carcinoma) cell lines were grown as monolayers as described in Jackman et al, Cancer Res, 50, 5212-5218 (1990) and Jackman et al, Br. J. Cancer, 71, 914-924 (1995).
Growth inhibition studies with suspension cells were performed as described in Jackman et al, Cancer Res, 50, 5212-5218 (1990). Activity against the adherent cell lines was assessed by MTT assay (Twentyman et al, Br. J. Cancer, 56, 279-285 (1987)) where cells were seeded in 96-well plates at 1000-3000 cells per well, incubated overnight and then exposed to the appropriate drug concentrations for 96-120 h.

W1L2:R865 cell line = test: Growth inhibition of W1L2:R865 cells (acquired resistance to CB 30865); assay type: cell-based, human
Protocol: A cell line was raised with acquired resistance to CB 30865, denoted W1L2:R865, by stepwise selection over ˜9 months.
The generated W1L2:R865 cell line was routinely cultured in 0.03 μm CB 30865 under the same conditions as W1L2 cells, with cells being grown in the absence of CB 30865 for ˜2 weeks before an experiment.
The activity of compounds against W1L2:R865 cells was determined within parallel experiments by 72 h growth inhibition assay (Coulter counts). CB 30865 was included in every experiment as an internal control.

W1L2 cells = test: Growth inhibition of W1L2 in presence of folate metabolites (dThd/HX); assay type: cell-based, human; settings: in the presence of 10 μM thymidine (dThd) and 50 μM hypoxantine (HX), read-out: Inhibition of Cell Growth IC50, W1L2 + dThd/HX (C)
Protocol: Growth inhibition assays as described above were performed in W1L2 cells where compounds were incubated in the presence of 10 μM thymidine (dThd) and 50 μM hypoxantine (HX) (purchased from Sigma Chemical Co.).

[2] = biological target: mouse thymidylate synthase (TS) (Mus musculus, UniProt P07607); test: Inhibition of L1210 thymidylate synthase (TS)
Chain of mouse thymidylate synthase (TS) (P07607 whole entry): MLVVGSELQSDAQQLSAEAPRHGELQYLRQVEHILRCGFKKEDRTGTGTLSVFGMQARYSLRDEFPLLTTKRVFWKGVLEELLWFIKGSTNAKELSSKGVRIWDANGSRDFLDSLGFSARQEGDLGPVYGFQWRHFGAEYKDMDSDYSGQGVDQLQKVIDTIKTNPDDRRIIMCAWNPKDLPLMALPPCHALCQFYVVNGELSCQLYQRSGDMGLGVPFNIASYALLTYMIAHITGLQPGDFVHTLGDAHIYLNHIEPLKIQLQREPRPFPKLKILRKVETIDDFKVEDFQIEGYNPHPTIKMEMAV

[3] = Homo sapiens, Lymphoblastoid cell
[4] = Homo sapiens, 72 h growth inhibition assay (Coulter counts), read-out: Inhibition of Cell Growth IC50, W1L2:R865 (D)
[5] = Homo sapiens, 72 h, read-out: Inhibition of Cell Growth IC50, W1L2:R865 (D), 72 h growth inhibition assay (Coulter counts)
[6] = 72 h growth inhibition assay (Coulter counts), read-out: Inhibition of Cell Growth IC50, W1L2:R865 (D)
[7] = read-out: Inhibition of Cell Growth IC50, W1L2:R865 (D), 72 h growth inhibition assay (Coulter counts)

`C#CCN(c1ccc(C(=O)NCc2cccnc2)cc1)C1CCc2cc3cc(C)n(C)c(=O)c3cc21` (centres unmarked) [CB300847, reference compound] showed an IC50 [1, 3] of 6.5 ± 1.7 nM, an IC50 (W1L2:C1 cells; Homo sapiens) of 2.7 nM and an IC50 (W1L2:R865 cell line; [4]) of 2500 nM.

For `C#CCN(Cc1cc2c(=O)n(C)c(CN3CCN(C)CC3)nc2cc1Cl)c1ccc(C(=O)NCc2cccnc2)cc1` [CB300921, 4-[N-[7-Chloro-3-methyl-2-(4-methyl-piperazin-1-yl)methyl-4-oxo-3,4-dihydroquinazolin-6-ylmethyl]-N-(prop-2-ynyl)amino]-N-(3-pyridylmethyl)benzamide], the IC50 [1, 3] was 0.65 ± 0.15 nM, the IC50 (W1L2:C1 cells) was 0.62 nM and 0.54 nM and the IC50 (W1L2:R865 cell line; [5]) was > 10000 nM.

In the case of `C#CCN(Cc1cc2c(=O)n(C)c(CN(CC)CC)nc2cc1Cl)c1ccc(C(=O)NCc2cccnc2)cc1` [CB300922, 4-[N-[2-Diethylaminomethyl-7-chloro-3-methyl-4-oxo-3,4-dihydroquinazolin-6-ylmethyl]-N-(prop-2-ynyl)amino]-N-(3-pyridylmethyl)benzamide], the IC50 [1, 3] is reported as 0.71 ± 0.0076 nM, the IC50 (W1L2 cells; Homo sapiens) is reported as 0.73 ± 0.05 nM and the IC50 (W1L2:C1 cells; Homo sapiens) is reported as 0.42 nM. For the same compound, the IC50 (W1L2:R865 cell line; [5]) was > 50000 nM, the melting point was 180 to 182 °C and the “Inhibition of L1210 TS (A) IRP* (inverse relative potency)” value [2] was >2500.

Work on `C#CCN(Cc1cc2c(=O)n(C)c(CN3CCCCC3)nc2cc1Cl)c1ccc(C(=O)NCc2cccnc2)cc1` [CB300923, 4-[N-[7-Chloro-3-methyl-4-oxo-2-piperidinomethyl-3,4-dihydroquinazolin-6-ylmethyl]-N-(prop-2-ynyl)amino]-N-(3-pyridylmethyl)benzamide] yielded an IC50 [1, 3] of 0.8 nM, an IC50 (W1L2 cells; Homo sapiens) of 0.78 nM and an IC50 (W1L2:R865 cell line; [5]) of 14000 nM. For the same compound, the melting point was 148 to 150 °C and the “Inhibition of L1210 TS (A) IRP* (inverse relative potency)” value [2] was >4211.

For `C#CCN(Cc1cc2c(=O)n(C)c(CN3CCOCC3)nc2cc1Cl)c1ccc(C(=O)NCc2cccnc2)cc1` [CB300925, 4-[N-[7-Chloro-3-methyl-2-morpholinomethyl-4-oxo-3,4-dihydroquinazolin-6-ylmethyl]-N-(prop-2-ynyl)amino]-N-(3-pyridylmethyl)benzamide], the IC50 [1, 3] was 2 ± 0.36 nM, the IC50 (W1L2:R865 cell line; [5]) was 19000 nM and the melting point was > 145 °C.

In the case of `C#CCN(Cc1cc2c(=O)n(C)c(CN3CCCC3)nc2cc1Cl)c1ccc(C(=O)NCc2cccnc2)cc1` [CB300926, 4-[N-[7-Chloro-3-methyl-2-pyrrolidinomethyl-4-oxo-3,4-dihydroquinazolin-6-ylmethyl]-N-(prop-2-ynyl)amino]-N-(3-pyridylmethyl)benzamide], the IC50 [1, 3] is reported as 0.7 nM, the IC50 [1] is reported as 0.74 nM and the IC50 (W1L2 cells; Homo sapiens) is reported as 0.76 nM. It also gave an IC50 (W1L2:R865 cell line; [5]) of 24000 nM.

With `C#CCN(Cc1cc2c(=O)n(C)c(CN3CCN(CC)CC3)nc2cc1Cl)c1ccc(C(=O)NCc2cccnc2)cc1` [CB300927, 4-[N-[7-Chloro-3-methyl-2-(4-ethyl-piperazin-1-yl)methyl-4-oxo-3,4-dihydroquinazolin-6-ylmethyl]-N-(prop-2-ynyl)amino]-N-(3-yridylmethyl)benzamide] the IC50 [1] was 0.78 nM and 0.8 nM, the IC50 (W1L2 cells) was 0.78 nM and 0.76 nM and the IC50 (W1L2:R865 cell line; [6]) was 22000 nM and 20000 nM.

With `C#CCN(Cc1cc2c(=O)n(C)c(CN3CCC[C@H]3C(=O)OC)nc2cc1Cl)c1ccc(C(=O)NCc2cccnc2)cc1` [CB300928, 4-[N-[7-Chloro-3-methyl-2-(methyl-L-prolin-1-yl)methyl-4-oxo-3,4-dihydroquinazolin-6-ylmethyl]-N-(prop-2-ynyl)amino]-N-(3-pyridylmethyl)benzamide] the IC50 (W1L2 cells) was 14 nM and 7.6 nM and the IC50 (W1L2:R865 cell line; [6]) was 24000 nM and 19000 nM.

Work on `C#CCN(Cc1cc2c(=O)n(C)c(CN3CCN(C)CC3)nc2cc1Cl)c1ccc(C(=O)NCCCn2ccnc2)cc1` [CB300929, 4-[N-[7-Chloro-3-methyl-2-(4-methyl-piperazin-1-yl)methyl-4-oxo-3,4-dihydroquinazolin-6-ylmethyl]-N-(prop-2-ynyl)amino]-N-[3-(1H-imidazol-1-yl)propyl)benzamide] yielded an IC50 [1, 3] of 2.1 nM, an IC50 [1] of 2.2 nM and an IC50 (W1L2:C1 cells; Homo sapiens) of 2.3 nM. For the same compound, the IC50 (W1L2:C1 cells) was 2.2 nM, the IC50 (W1L2:R865 cell line; [5]) was 18000 nM and the IC50 (W1L2:R865 cell line; [7]) was 14000 nM. For the same compound, the melting point was > 115 °C.

`C#CCN(Cc1cc2c(=O)n(C)c(CN3CCN(CCO)CC3)nc2cc1Cl)c1ccc(C(=O)NCc2cccnc2)cc1` [CB300930, 4-[N-[7-Chloro-3-methyl-2-(4-(2-hydroxyethyl)-piperazin-1-yl)methyl-4-oxo-3,4-dihydroquinazolin-6-ylmethyl]-N-(prop-2-ynyl)amino]-N-(3-pyridylmethyl)benzamide] gave an IC50 (W1L2:R865 cell line; [5]) of 22000 nM, an IC50 (W1L2:R865 cell line; [7]) of 19000 nM and a melting point of 115 to 117 °C.

`C#CCN(Cc1cc2c(=O)n(CC(=O)OC)c(CN3CCCCC3)nc2cc1Cl)c1ccc(C(=O)NCc2cccnc2)cc1` [CB300931, 4-[N-[7-Chloro-3-methoxycarbonylmethyl-4-oxo-2-piperidin-1-ylmethyl-3,4-dihydroquinazolin-6-ylmethyl]-N-(prop-2-ynyl)amino]-N-(3-pyridylmethyl)benzamide] showed an IC50 [1, 3] of 11 nM, an IC50 (W1L2:C1 cells; Homo sapiens) of 9.6 nM and an IC50 (W1L2:R865 cell line; [5]) of 23000 nM. It also gave a melting point of 214 to 216 °C.

`C#CCN(Cc1cc2c(=O)n(CCN(C)C)c(CN3CCCCC3)nc2cc1Cl)c1ccc(C(=O)NCc2cccnc2)cc1` [CB300933, 4-[N-[7-Chloro-3-(2-dimethylaminoethyl)-4-oxo-2-piperidin-1-ylmethyl-3,4-dihydroquinazolin-6-ylmethyl]-N-(prop-2-ynyl)amino]-N-(3-pyridylmethyl)benzamide] showed an IC50 [1, 3] of 2.9 nM, an IC50 (W1L2:C1 cells; Homo sapiens) of 2.8 nM and an IC50 (W1L2:R865 cell line; [5]) of 7200 nM. For the same compound, the melting point was 90 to 93 °C.

`C#CCN(Cc1cc2c(=O)n(C)c(CN3CCN(c4ccccc4)CC3)nc2cc1Cl)c1ccc(C(=O)NCc2cccnc2)cc1` [CB300934, 4-[N-[7-Chloro-3-methyl-4-oxo-2-(4-phenylpiperazin-1-yl)methyl-3,4-dihydroquinazolin-6-ylmethyl]-N-(prop-2-ynyl)amino]-N-(3-pyridylmethyl)benzamide] gave an IC50 [1, 3] of 7.2 nM, an IC50 (W1L2:C1 cells; Homo sapiens) of 5.4 nM and an IC50 (W1L2:R865 cell line; [5]) of 940 nM. The melting point was 214 to 216 °C.

For `C#CCN(Cc1cc2c(=O)n(CC(=O)N3CCCCC3)c(CN3CCCCC3)nc2cc1Cl)c1ccc(C(=O)NCc2cccnc2)cc1` [CB300938, 4-[N-[7-Chloro-4-oxo-2-(piperidin-1-yl)methyl-3-piperidinocarbonylmethyl-3,4-dihydroquinazolin-6-ylmethyl]-N-(prop-2-ynyl)amino]-N-(3-pyridylmethyl)benzamide], the IC50 [1, 3] was 8.4 nM, the IC50 (W1L2:C1 cells; Homo sapiens) was 7.4 nM and the IC50 (W1L2:R865 cell line; [5]) was > 50000 nM. The melting point was 128 to 130 °C.

`C#CCN(Cc1cc2c(=O)n(C)c(CN3CCC(O)CC3)nc2cc1Cl)c1ccc(C(=O)NCc2cccnc2)cc1` [CB300939, 4-[N-[7-Chloro3-methyl-2-(4-hydroxypiperidin-1-yl)methyl-4-oxo-3,4-dihydroquinazolin-6ylmethyl]-N-(prop-2-ynyl)amino]-N-(3-pyridylmethyl)benzamide] showed an IC50 [1, 3] of 0.72 nM, an IC50 (W1L2:C1 cells; Homo sapiens) of 0.7 nM and an IC50 (W1L2:R865 cell line; [5]) of 18000 nM.

`C#CCN(Cc1cc2c(=O)n(CC(=O)N(CC)CC)c(CN3CCCCC3)nc2cc1Cl)c1ccc(C(=O)NCc2cccnc2)cc1` [CB300941, 4-[N-[7-Chloro-3-diethylcarbamoylmethyl-4-oxo-2-(piperidin-1-yl)methyl-3,4-dihydroquinazolin-6-ylmethyl]-N-(prop-2-ynyl)amino]-N-(3-pyridylmethyl)benzamide] showed an IC50 [1, 3] of 9.4 nM, an IC50 (W1L2:C1 cells; Homo sapiens) of 8.4 nM and an IC50 (W1L2:R865 cell line; [5]) of 19000 nM. The melting point was > 105 °C.

For `C#CCN(Cc1cc2c(=O)n(C)c(CN3CCCCC3)nc2cc1Cl)c1ccc(C(=O)NCCCn2cncn2)cc1` [CB300942], the IC50 [1] was > 500 nM, the IC50 (W1L2:C1 cells) was > 500 nM and the IC50 (W1L2:R865 cell line; [6]) was 20000 nM.

In the case of `CN(c1ccc(C(=O)NCc2cccnc2)cc1)C1CCc2cc3nc(CN4CCCCC4)n(C)c(=O)c3cc21` (centres unmarked) [CB300943], the IC50 [1, 3] is reported as 28 nM, the IC50 (W1L2:C1 cells; Homo sapiens) is reported as 26 nM and the IC50 (W1L2:R865 cell line; [4]) is reported as > 500 nM.
